Holding throughout (test): inhibition of tumour cell growth, NCI panel, 48 h
The test system of assay [1] is ACHN.
Assay [2] has as its system CAKI-1.
Assay [3] concerns EKVX.
Assay [4] concerns HCT-15.
Assay [5] has as its system HL-60.
Assay [6] deals with K562.
For assay [7], the system named is NCI-H23.
In assay [8] the test system is OVCAR-3.
Assay [9] deals with OVCAR-4.
For assay [10], the system named is OVCAR-8.
Assay [11] concerns RPMI-8226.
For assay [12], the system named is SF-295.
Assay [13] deals with SF-539.
For assay [14], the system named is SK-MEL-5.
For assay [15], the system named is SK-OV-3.
Assay [16] relates to SNB-19.
Assay [17] deals with SW-620.
Assay [18] relates to UACC-257.
Assay [19] concerns UO-31.
Assay [20] concerns NCI-H522.

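Growth conditions: 96-well plates. Treatment: test compound, 48 hours, 5 concentrations. Analysis: linear interpolation between bracketing concentrations; unreached endpoints set to highest concentration. Abbreviation: GI50, concentration required for 50% inhibition of growth.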 Activity calls are given as the source filed them. Rule as the data show it: active = GI50 up to about 1.1 µM and inactive = higher.

As for `O=C(O)C(CCc1ccccc1)N1C(=O)c2ccccc2C1=O` (stereo not given), the GI50 is > 100 µM (inactive) in [1]; > 100 µM (inactive) in assay [2]; > 100 µM (inactive) in [3]; > 100 µM in assay [4]; > 100 µM (inactive) in [5]; > 100 µM (inactive) in assay [6]. The GI50 in assay [7], in assay [8], in assay [9], in assay [10], in assay [11] and in assay [12] was > 100 µM (inactive) each time. Further, the GI50 in assay [13], in [14], in assay [15], in assay [16], in [17] and in assay [18] was > 100 µM (inactive) each time. For the same compound, the GI50 in assay [19] was > 100 µM (inactive).
For `CCOc1cc(/C=N\O)cc(/C=N/O)c1O`, the GI50 in assay [1] was 22.7 µM (inactive); in assay [2], 21.9 µM (inactive); in assay [3], 33.3 µM (inactive); in assay [4], 31.3 µM; in [5] it was 18.1 µM (inactive); in [6], 61.5 µM (inactive). Further, the GI50 is 30 µM (inactive) in [7]; 31.1 µM (inactive) in [8]; 42.6 µM (inactive) in assay [9]; 25.2 µM (inactive) in assay [10]; 24.7 µM (inactive) in assay [11]; 38.3 µM (inactive) in [12]. Moreover, the GI50 was 24 µM (inactive) in assay [13]; 17.7 µM (inactive) in [14]; 59.4 µM (inactive) in assay [15]; 39.2 µM (inactive) in [16]; 34.6 µM (inactive) in [17]; 47.2 µM (inactive) in [18]. Besides, the GI50 in assay [19] is 1.2 µM (inactive).
Turning to `Cc1cn(Cc2cnnn2CC2OC(n3cc(C)c(=O)[nH]c3=O)CC2O)c(=O)[nH]c1=O` (stereo not given), the GI50 in [1] was > 100 µM (inactive); in assay [2], > 100 µM (inactive); in assay [3], > 100 µM (inactive); in assay [4] it was > 100 µM; in assay [7], > 100 µM (inactive); in [8], > 100 µM (inactive). Moreover, the GI50 in [9], in assay [10], in assay [11], in assay [12], in assay [13] and in [14] was > 100 µM (inactive) each time. Further, the GI50 in assay [15], in assay [16], in assay [17], in [18] and in assay [19] was > 100 µM (inactive) in each case.
For the compound `COc1nc2[nH]ccc2c(=O)[nH]1`, the GI50 in assay [1], in [2], in assay [3], in [5], in [6] and in assay [7] was > 100 µM (inactive) throughout. Also, the GI50 in [9], in [10], in assay [11], in assay [12], in assay [13] and in [14] was > 100 µM (inactive) each time. Further, the GI50 in [16], in assay [17], in assay [18] and in assay [19] was > 100 µM (inactive) in each case.
As for `CCOC(=O)Nc1ccc(S(=O)(=O)NCCCl)cc1.CCOC(=O)Nc1ccc(S(=O)(=O)NCCCl)cc1.O=C(O)c1ccc(/N=N/Cl)cc1O`, the GI50 in [1] is > 100 µM (inactive); in assay [2], > 100 µM (inactive); in [3] it was > 100 µM (inactive); in assay [4], > 100 µM; in assay [5], > 100 µM (inactive); in [6], > 100 µM (inactive). The GI50 in assay [7], in assay [20], in assay [8], in assay [9], in assay [10] and in assay [12] was > 100 µM (inactive) throughout. Also, the GI50 in [13], in assay [14], in [15], in assay [17], in assay [18] and in [19] was > 100 µM (inactive) in each case.
`COc1cc(C(=O)C/C(CCC(=O)Nc2ccc(Cl)cc2Cl)=N/NC(=O)C(=O)NN)ccc1O`: the GI50 in assay [1] is > 100 µM (inactive); in assay [2] it was 46.2 µM (inactive); in assay [3], 97.7 µM (inactive); in assay [4] it was > 100 µM; in [5], > 100 µM (inactive); in [6], 28.1 µM (inactive). The GI50 in [7], in assay [20], in [8], in assay [9], in assay [10] and in [12] was > 100 µM (inactive) each time. The GI50 in assay [13], in assay [14], in [15], in [16], in assay [17] and in [18] was > 100 µM (inactive) in each case. Besides, in assay [19], the GI50 is > 100 µM (inactive).
Turning to `COC1/C=C/C(C)C(C(C)C(OC)C(C)CCC(=O)C(C)C(C/C=C/N(C)C=O)OC)OC(=O)/C=C/C=C(\C)CC(OC)CC2=CC(=O)O[C@H](C2)C(C)C(OC)CC(OC)/C=C/C(C)C(OC)C1` (stereo not given in full), the GI50 in [2] was < 0.005 µM (active); in assay [3], 0.084 µM (active); in assay [4], < 0.005 µM; in assay [7] it was 0.0521 µM (active); in assay [20] it was 0.00588 µM (active); in assay [9] it was 0.0984 µM (active). The GI50 in assay [10] is 0.0224 µM (active); in [11] it was < 0.005 µM (active); in assay [12] it was 0.00619 µM (active); in assay [14], 0.00518 µM (active); in assay [15], 0.00955 µM (active); in assay [16], 0.0149 µM (active). Also, the results for the GI50 in assay [17], in assay [18] and in assay [19] were 0.00766 µM (active), 0.00819 µM (active) and 0.0125 µM (active), respectively.
`N#Cc1c(-c2ccccc2)cn(C(=O)c2ccccc2)c1N`: the GI50 in [1] is > 100 µM (inactive); in assay [3] it was > 100 µM (inactive); in assay [4], > 100 µM; in assay [5], > 100 µM (inactive); in assay [6] it was > 100 µM (inactive); in assay [7], > 100 µM (inactive). For the same compound, the GI50 was > 100 µM (inactive) in [20]; > 100 µM (inactive) in [8]; 21.3 µM (inactive) in assay [9]; > 100 µM (inactive) in assay [10]; > 100 µM (inactive) in [11]; > 100 µM (inactive) in [12]. For the same compound, the GI50 in assay [14], in [15], in assay [16], in [17] and in assay [19] was > 100 µM (inactive) throughout.
